The results in this text go back to PubChem BioAssay AID1963845 (Molecular Pharmacology Branch, DTP, NCI, 2024).
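Also: luminescence signal used as surrogate measure of viable cells; spheroids exposed to compounds for seven days before readout; 100% = DMSO vehicle control viability as luminescence relative to vehicle.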

One assay has as its system 429239-143-T-J1-PDC complex spheroid viability. Nature of the assay: Anticancer human tumor 429239-143-T-J1-PDC patient-derived small cell lung carcinoma cell line growth inhibition [POLQ]. Particulars: second compound 0.316 µM; first compound 0.316 µM; stronger effect = lower value. The method, boiled down:
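Growth inhibition in 3D: complex spheroids (tumor PDC, HUVEC, MSC) treated with POLQ inhibitor combinations; where Cmax unknown, highest tested concentration 10 microM, except SN-38 at 1 microM.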
Broadly, the viability, T/C is the result in the treated group divided by that in the control group, in per cent. Turning to `C=CCn1c(=O)c2cnc(Nc3ccc(N4CCN(C)CC4)cc3)nc2n1-c1cccc(C(C)(C)O)n1` + COC1C(OC(N)=O)C(O)C(Oc2ccc3c(O)c(NC(=O)c4ccc(O)c(CC=C(C)C)c4)c(=O)oc3c2C)OC1(C)C, the viability, T/C is 82.5%.
The same measure, in the same setting: in the case of `CCc1c2c(nc3ccc(O)cc13)-c1cc3c(c(=O)n1C2)COC(=O)[C@]3(O)CC` + COC1C(OC(N)=O)C(O)C(Oc2ccc3c(O)c(NC(=O)c4ccc(O)c(CC=C(C)C)c4)c(=O)oc3c2C)OC1(C)C it was 15.6%; in that of `CNCc1ccc(-c2[nH]c3cc(F)cc4c3c2CCNC4=O)cc1` + COC1C(OC(N)=O)C(O)C(Oc2ccc3c(O)c(NC(=O)c4ccc(O)c(CC=C(C)C)c4)c(=O)oc3c2C)OC1(C)C, 74.5%; in that of `O=C(c1cc(Cc2n[nH]c(=O)c3ccccc23)ccc1F)N1CCN(C(=O)C2CC2)CC1` + COC1C(OC(N)=O)C(O)C(Oc2ccc3c(O)c(NC(=O)c4ccc(O)c(CC=C(C)C)c4)c(=O)oc3c2C)OC1(C)C, 86.8%.

The same assay, now with this note: second compound 0.316 µM; first compound 1 µM; stronger effect = lower value.
Regarding `C=CCn1c(=O)c2cnc(Nc3ccc(N4CCN(C)CC4)cc3)nc2n1-c1cccc(C(C)(C)O)n1` + COC1C(OC(N)=O)C(O)C(Oc2ccc3c(O)c(NC(=O)c4ccc(O)c(CC=C(C)C)c4)c(=O)oc3c2C)OC1(C)C, the viability, T/C is 22.7%.
Regarding `CCc1c2c(nc3ccc(O)cc13)-c1cc3c(c(=O)n1C2)COC(=O)[C@]3(O)CC` + COC1C(OC(N)=O)C(O)C(Oc2ccc3c(O)c(NC(=O)c4ccc(O)c(CC=C(C)C)c4)c(=O)oc3c2C)OC1(C)C, the viability, T/C was 5.23%.
For `CNCc1ccc(-c2[nH]c3cc(F)cc4c3c2CCNC4=O)cc1` + COC1C(OC(N)=O)C(O)C(Oc2ccc3c(O)c(NC(=O)c4ccc(O)c(CC=C(C)C)c4)c(=O)oc3c2C)OC1(C)C, the viability, T/C was 69.6%.
Regarding `O=C(c1cc(Cc2n[nH]c(=O)c3ccccc23)ccc1F)N1CCN(C(=O)C2CC2)CC1` + COC1C(OC(N)=O)C(O)C(Oc2ccc3c(O)c(NC(=O)c4ccc(O)c(CC=C(C)C)c4)c(=O)oc3c2C)OC1(C)C, the viability, T/C was 68.9%.

Staying with this assay, now noted: second compound 0.316 µM; first compound 3.16 µM; stronger effect = lower value.
For the compound `CNCc1ccc(-c2[nH]c3cc(F)cc4c3c2CCNC4=O)cc1` + COC1C(OC(N)=O)C(O)C(Oc2ccc3c(O)c(NC(=O)c4ccc(O)c(CC=C(C)C)c4)c(=O)oc3c2C)OC1(C)C, the viability, T/C is 49.3%.
Regarding `O=C(c1cc(Cc2n[nH]c(=O)c3ccccc23)ccc1F)N1CCN(C(=O)C2CC2)CC1` + COC1C(OC(N)=O)C(O)C(Oc2ccc3c(O)c(NC(=O)c4ccc(O)c(CC=C(C)C)c4)c(=O)oc3c2C)OC1(C)C, the viability, T/C was 28.9%.

Still in this assay, the particulars now being: second compound 0.316 µM; first compound 10 µM; stronger effect = lower value.
In the case of `CNCc1ccc(-c2[nH]c3cc(F)cc4c3c2CCNC4=O)cc1` + COC1C(OC(N)=O)C(O)C(Oc2ccc3c(O)c(NC(=O)c4ccc(O)c(CC=C(C)C)c4)c(=O)oc3c2C)OC1(C)C, the viability, T/C is 21.4%.
For `O=C(c1cc(Cc2n[nH]c(=O)c3ccccc23)ccc1F)N1CCN(C(=O)C2CC2)CC1` + COC1C(OC(N)=O)C(O)C(Oc2ccc3c(O)c(NC(=O)c4ccc(O)c(CC=C(C)C)c4)c(=O)oc3c2C)OC1(C)C, the viability, T/C is 18.2%.

Staying with this assay, now noted: second compound 1 µM; first compound 0.00316 µM; stronger effect = lower value.
Regarding `C=CCn1c(=O)c2cnc(Nc3ccc(N4CCN(C)CC4)cc3)nc2n1-c1cccc(C(C)(C)O)n1` + COC1C(OC(N)=O)C(O)C(Oc2ccc3c(O)c(NC(=O)c4ccc(O)c(CC=C(C)C)c4)c(=O)oc3c2C)OC1(C)C, the viability, T/C is 95.3%.
On the same count and under the same terms, the figure for `CCc1c2c(nc3ccc(O)cc13)-c1cc3c(c(=O)n1C2)COC(=O)[C@]3(O)CC` + COC1C(OC(N)=O)C(O)C(Oc2ccc3c(O)c(NC(=O)c4ccc(O)c(CC=C(C)C)c4)c(=O)oc3c2C)OC1(C)C is 21.4%.

The same assay, now with this note: second compound 1 µM; first compound 0.01 µM; stronger effect = lower value.
Take `C=CCn1c(=O)c2cnc(Nc3ccc(N4CCN(C)CC4)cc3)nc2n1-c1cccc(C(C)(C)O)n1` + COC1C(OC(N)=O)C(O)C(Oc2ccc3c(O)c(NC(=O)c4ccc(O)c(CC=C(C)C)c4)c(=O)oc3c2C)OC1(C)C: the viability, T/C was 83.5%.
Same read-out and setting: in the case of `CCc1c2c(nc3ccc(O)cc13)-c1cc3c(c(=O)n1C2)COC(=O)[C@]3(O)CC` + COC1C(OC(N)=O)C(O)C(Oc2ccc3c(O)c(NC(=O)c4ccc(O)c(CC=C(C)C)c4)c(=O)oc3c2C)OC1(C)C it was 18.1%.

Still in this assay, the particulars now being: second compound 1 µM; first compound 0.0316 µM; stronger effect = lower value.
On to `C=CCn1c(=O)c2cnc(Nc3ccc(N4CCN(C)CC4)cc3)nc2n1-c1cccc(C(C)(C)O)n1` + COC1C(OC(N)=O)C(O)C(Oc2ccc3c(O)c(NC(=O)c4ccc(O)c(CC=C(C)C)c4)c(=O)oc3c2C)OC1(C)C, for which the viability, T/C was 101%.
Consider `CCc1c2c(nc3ccc(O)cc13)-c1cc3c(c(=O)n1C2)COC(=O)[C@]3(O)CC` + COC1C(OC(N)=O)C(O)C(Oc2ccc3c(O)c(NC(=O)c4ccc(O)c(CC=C(C)C)c4)c(=O)oc3c2C)OC1(C)C, for which the viability, T/C was 18%.
The same measure, in the same setting: in the case of `CNCc1ccc(-c2[nH]c3cc(F)cc4c3c2CCNC4=O)cc1` + COC1C(OC(N)=O)C(O)C(Oc2ccc3c(O)c(NC(=O)c4ccc(O)c(CC=C(C)C)c4)c(=O)oc3c2C)OC1(C)C it was 87.5%; in that of `O=C(c1cc(Cc2n[nH]c(=O)c3ccccc23)ccc1F)N1CCN(C(=O)C2CC2)CC1` + COC1C(OC(N)=O)C(O)C(Oc2ccc3c(O)c(NC(=O)c4ccc(O)c(CC=C(C)C)c4)c(=O)oc3c2C)OC1(C)C, 104%.

Still in this assay, the particulars now being: second compound 1 µM; first compound 0.1 µM; stronger effect = lower value.
Turning to `C=CCn1c(=O)c2cnc(Nc3ccc(N4CCN(C)CC4)cc3)nc2n1-c1cccc(C(C)(C)O)n1` + COC1C(OC(N)=O)C(O)C(Oc2ccc3c(O)c(NC(=O)c4ccc(O)c(CC=C(C)C)c4)c(=O)oc3c2C)OC1(C)C, the viability, T/C was 88.7%.
As for `CCc1c2c(nc3ccc(O)cc13)-c1cc3c(c(=O)n1C2)COC(=O)[C@]3(O)CC` + COC1C(OC(N)=O)C(O)C(Oc2ccc3c(O)c(NC(=O)c4ccc(O)c(CC=C(C)C)c4)c(=O)oc3c2C)OC1(C)C, the viability, T/C was 19.1%.
With `CNCc1ccc(-c2[nH]c3cc(F)cc4c3c2CCNC4=O)cc1` + COC1C(OC(N)=O)C(O)C(Oc2ccc3c(O)c(NC(=O)c4ccc(O)c(CC=C(C)C)c4)c(=O)oc3c2C)OC1(C)C, the viability, T/C was 86.9%.
As to `O=C(c1cc(Cc2n[nH]c(=O)c3ccccc23)ccc1F)N1CCN(C(=O)C2CC2)CC1` + COC1C(OC(N)=O)C(O)C(Oc2ccc3c(O)c(NC(=O)c4ccc(O)c(CC=C(C)C)c4)c(=O)oc3c2C)OC1(C)C, the viability, T/C is 87.5%.

Still in this assay, the particulars now being: second compound 1 µM; first compound 0.316 µM; stronger effect = lower value.
With `C=CCn1c(=O)c2cnc(Nc3ccc(N4CCN(C)CC4)cc3)nc2n1-c1cccc(C(C)(C)O)n1` + COC1C(OC(N)=O)C(O)C(Oc2ccc3c(O)c(NC(=O)c4ccc(O)c(CC=C(C)C)c4)c(=O)oc3c2C)OC1(C)C, the viability, T/C is 82.2%.
Take `CCc1c2c(nc3ccc(O)cc13)-c1cc3c(c(=O)n1C2)COC(=O)[C@]3(O)CC` + COC1C(OC(N)=O)C(O)C(Oc2ccc3c(O)c(NC(=O)c4ccc(O)c(CC=C(C)C)c4)c(=O)oc3c2C)OC1(C)C: the viability, T/C was 12.5%.
In the case of `CNCc1ccc(-c2[nH]c3cc(F)cc4c3c2CCNC4=O)cc1` + COC1C(OC(N)=O)C(O)C(Oc2ccc3c(O)c(NC(=O)c4ccc(O)c(CC=C(C)C)c4)c(=O)oc3c2C)OC1(C)C, the viability, T/C is 79.3%.
In the case of `O=C(c1cc(Cc2n[nH]c(=O)c3ccccc23)ccc1F)N1CCN(C(=O)C2CC2)CC1` + COC1C(OC(N)=O)C(O)C(Oc2ccc3c(O)c(NC(=O)c4ccc(O)c(CC=C(C)C)c4)c(=O)oc3c2C)OC1(C)C, the viability, T/C was 81.2%.

The assay is the same for the next values; noted with them: second compound 1 µM; first compound 1 µM; stronger effect = lower value.
For `C=CCn1c(=O)c2cnc(Nc3ccc(N4CCN(C)CC4)cc3)nc2n1-c1cccc(C(C)(C)O)n1` + COC1C(OC(N)=O)C(O)C(Oc2ccc3c(O)c(NC(=O)c4ccc(O)c(CC=C(C)C)c4)c(=O)oc3c2C)OC1(C)C, the viability, T/C was 21%.
Consider `CCc1c2c(nc3ccc(O)cc13)-c1cc3c(c(=O)n1C2)COC(=O)[C@]3(O)CC` + COC1C(OC(N)=O)C(O)C(Oc2ccc3c(O)c(NC(=O)c4ccc(O)c(CC=C(C)C)c4)c(=O)oc3c2C)OC1(C)C, for which the viability, T/C was 6.46%.
On to `CNCc1ccc(-c2[nH]c3cc(F)cc4c3c2CCNC4=O)cc1` + COC1C(OC(N)=O)C(O)C(Oc2ccc3c(O)c(NC(=O)c4ccc(O)c(CC=C(C)C)c4)c(=O)oc3c2C)OC1(C)C, for which the viability, T/C was 72.6%.
In the case of `O=C(c1cc(Cc2n[nH]c(=O)c3ccccc23)ccc1F)N1CCN(C(=O)C2CC2)CC1` + COC1C(OC(N)=O)C(O)C(Oc2ccc3c(O)c(NC(=O)c4ccc(O)c(CC=C(C)C)c4)c(=O)oc3c2C)OC1(C)C, the viability, T/C was 78.5%.

The same assay, now with this note: second compound 1 µM; first compound 3.16 µM; stronger effect = lower value.
Turning to `CNCc1ccc(-c2[nH]c3cc(F)cc4c3c2CCNC4=O)cc1` + COC1C(OC(N)=O)C(O)C(Oc2ccc3c(O)c(NC(=O)c4ccc(O)c(CC=C(C)C)c4)c(=O)oc3c2C)OC1(C)C, the viability, T/C was 46%.
Take `O=C(c1cc(Cc2n[nH]c(=O)c3ccccc23)ccc1F)N1CCN(C(=O)C2CC2)CC1` + COC1C(OC(N)=O)C(O)C(Oc2ccc3c(O)c(NC(=O)c4ccc(O)c(CC=C(C)C)c4)c(=O)oc3c2C)OC1(C)C: the viability, T/C was 30.4%.

Still in this assay, the particulars now being: second compound 1 µM; first compound 10 µM; stronger effect = lower value.
Regarding `CNCc1ccc(-c2[nH]c3cc(F)cc4c3c2CCNC4=O)cc1` + COC1C(OC(N)=O)C(O)C(Oc2ccc3c(O)c(NC(=O)c4ccc(O)c(CC=C(C)C)c4)c(=O)oc3c2C)OC1(C)C, the viability, T/C is 19.7%.
The same measure, in the same setting: the figure for `O=C(c1cc(Cc2n[nH]c(=O)c3ccccc23)ccc1F)N1CCN(C(=O)C2CC2)CC1` + COC1C(OC(N)=O)C(O)C(Oc2ccc3c(O)c(NC(=O)c4ccc(O)c(CC=C(C)C)c4)c(=O)oc3c2C)OC1(C)C is 17.6%.

The same assay, now with this note: second compound 3.16 µM; first compound 0.00316 µM; stronger effect = lower value.
With `C=CCn1c(=O)c2cnc(Nc3ccc(N4CCN(C)CC4)cc3)nc2n1-c1cccc(C(C)(C)O)n1` + COC1C(OC(N)=O)C(O)C(Oc2ccc3c(O)c(NC(=O)c4ccc(O)c(CC=C(C)C)c4)c(=O)oc3c2C)OC1(C)C, the viability, T/C was 98.8%.
As for `CCc1c2c(nc3ccc(O)cc13)-c1cc3c(c(=O)n1C2)COC(=O)[C@]3(O)CC` + COC1C(OC(N)=O)C(O)C(Oc2ccc3c(O)c(NC(=O)c4ccc(O)c(CC=C(C)C)c4)c(=O)oc3c2C)OC1(C)C, the viability, T/C was 20.1%.

The same assay, now with this note: second compound 3.16 µM; first compound 0.01 µM; stronger effect = lower value.
`C=CCn1c(=O)c2cnc(Nc3ccc(N4CCN(C)CC4)cc3)nc2n1-c1cccc(C(C)(C)O)n1` + COC1C(OC(N)=O)C(O)C(Oc2ccc3c(O)c(NC(=O)c4ccc(O)c(CC=C(C)C)c4)c(=O)oc3c2C)OC1(C)C: the viability, T/C is 90%.
Take `CCc1c2c(nc3ccc(O)cc13)-c1cc3c(c(=O)n1C2)COC(=O)[C@]3(O)CC` + COC1C(OC(N)=O)C(O)C(Oc2ccc3c(O)c(NC(=O)c4ccc(O)c(CC=C(C)C)c4)c(=O)oc3c2C)OC1(C)C: the viability, T/C is 14.8%.

Staying with this assay, now noted: second compound 3.16 µM; first compound 0.0316 µM; stronger effect = lower value.
Regarding `C=CCn1c(=O)c2cnc(Nc3ccc(N4CCN(C)CC4)cc3)nc2n1-c1cccc(C(C)(C)O)n1` + COC1C(OC(N)=O)C(O)C(Oc2ccc3c(O)c(NC(=O)c4ccc(O)c(CC=C(C)C)c4)c(=O)oc3c2C)OC1(C)C, the viability, T/C was 94.2%.
Consider `CCc1c2c(nc3ccc(O)cc13)-c1cc3c(c(=O)n1C2)COC(=O)[C@]3(O)CC` + COC1C(OC(N)=O)C(O)C(Oc2ccc3c(O)c(NC(=O)c4ccc(O)c(CC=C(C)C)c4)c(=O)oc3c2C)OC1(C)C, for which the viability, T/C is 18.4%.
